How the values were obtained:
Type in all cases: biochemical
[1] = tested on: ppERK; assay: ADP aptamer F01-based kinase SPA; conditions: ADP SPA with ADP F01 aptamer; 3H-ATP and MBP; FIG. 34, 35
Source text: An ADP aptamer will concentrate the tritiated ADP released by kinase on the surface of the flash plate and generate a scintillation proximity signal detectable in a Topcount instrument.

[2] = tested on: ppERK; assay: 96-well high throughput screening (HTS) ppERK kinase assay
Experimental: A 96-well high throughput screening (HTS) ppERK kinase assay was constructed using the ADP F01 aptamer in an SPA. […] This HTS assay was used to assess the relative inhibitory activity of 100 test compounds at 10 μM concentration (FIG. 37). This HTS assay was performed three times (FIGS. 37A, 37B and 37C).

[3] = tested on: ppERK; assay: Minimized ADP aptamer F01-based kinase SPA; design: Initial Rate: unit not given here; conditions: for inhibition of ppERK activity (decreased signal in the ADP SPA): non-biotinylated minimized ADP aptamer on capture probe, FIG. 44-46
Experimental: An ADP aptamer will concentrate the tritiated ADP released by kinase on the surface of the flash plate and generate a signal detectable in a Topcount scintillation counter. For the study presented, minimized ADP aptamer (JD37.98A) (FIG. 42, SEQ ID NO: 1 19) was directly 3′-biotinylated and immobilized onto NEN streptavidin flashplates. Specifically, select assay wells were incubated with 5 pmol of JD37.98A directly 3′-biotinylated aptamer in 25 μl of PBS Buffer:BupH (0.05% tRNA, 0.025% Tween 20) with shaking at 650 RPM for 30 min. Unbound biotinylated aptamer probe was rinsed from the plate with three 1×PBS washes and dried as previously described. In following experiments the production of ^3H-ADP from ^3H-ATP was detected from ppERK using streptavidin coated flash plate wells that were incubated with 60 pmol of MK08.112A biotinylated capture probe in 30 μl of PBS Buffer:BupH (0.05% tRNA, 0.025% Tween 20) for 15 min with shaking at 650 RPM. Unbound probe was removed from the plate with three 1×PBS washes and blotted dry as described above. JD37.98A (150 pmol; not biotinylated) minimized ADP aptamer transcribed with capture probe sequence was added to select wells in 30 μl 1×PBS and incubated for 30 min with shaking at shaking at 650 RPM, Unbound probe was removed with three PBS washes and the plates were blotted dry as described above. Kinase reactions were carried out in a 30 μl final sample volume as follows. Stock 15 nM ppERK enzyme solution was prepared in selection buffer and incubated for 10 min at room temperature. Kinase test reactions were initiated by adding 1 μl test sample, e.g., inhibitor, to 14 μl selection buffer containing 1 mM DTT, […], and 2.7 μM ^3H-ATP and then combining this mixture with an equal volume of 15 nM ppERK enzyme solution. Kinase test reaction was immediately transferred to the appropriate test well and the reaction monitored on a TopCount, ^3H SPA scintillation counter over 900 min.

[4] = FIG. 37A, test compounds at 10 μM, 40 nM ppERK, 1.35 μM 3H-ATP, 10 μM MBP
[5] = Concentration 0.05 (unit not given)
[6] = Concentration 0.1 (unit not given)
[7] = Concentration 0.5 (unit not given)
[8] = Concentration 2.5 (unit not given)
[9] = Concentration 5 (unit not given)
[10] = Concentration 1.8 (unit not given)
[11] = Concentration 3.6 (unit not given)
[12] = Concentration 18 (unit not given)
[13] = Concentration 90 (unit not given)
[14] = Concentration 180 (unit not given)
[15] = Concentration 0.2 (unit not given)
[16] = Concentration 1 (unit not given)
[17] = Concentration 10 (unit not given)

For Nc1ncnc2c1c(I)cn2[C@@H]1O[C@H](CO)[C@@H](O)[C@H]1O [ITU], the “inhibition of ppERK” value [1] was “concentration-dependent inhibition”, the “reaction rate in the HTS ppERK assay” value [2, 4] was “significantly decreased the reaction rate” and the “20% Reacted Time” value [3, 5] was 57.8 min. The “Initial Rate” value [3, 5] was 46.949, the “Saturation Time” value [3, 5] was 289 min and the “20% Reacted Time” value [3, 6] was 59.6 min. For the same compound, the “Initial Rate” value [3, 6] was 48.324, the “Saturation Time” value [3, 6] was 298 min and the “20% Reacted Time” value [3, 7] was 59.6 min. The “Initial Rate” value [3, 7] was 36.486, the “Saturation Time” value [3, 7] was 298 min and the “20% Reacted Time” value [3, 8] was 83 min. For the same compound, the “Initial Rate” value [3, 8] was 19.275, the “Saturation Time” value [3, 8] was 415 min and the “20% Reacted Time” value [3, 9] was 113.6 min. For the same compound, the “Initial Rate” value [3, 9] was 10.772, the “Saturation Time” value [3, 9] was 568 min and the “inhibition of ppERK activity (decreased signal in the ADP SPA)” value [3] was “concentration-dependent inhibition”.

Nc1nccc(-c2c(-c3ccc(F)cc3)ncn2C2CCNCC2)n1 [SB220025] was tested, and the “inhibition of ppERK” value [1] was “concentration-dependent inhibition”, the “20% Reacted Time” value [3, 10] was 92 min and the “Initial Rate” value [3, 10] was 23.883. The “Saturation Time” value [3, 10] was 460 min, the “20% Reacted Time” value [3, 11] was 101 min and the “Initial Rate” value [3, 11] was 20.427. For the same compound, the “Saturation Time” value [3, 11] was 505 min, the “20% Reacted Time” value [3, 12] was 117.2 min and the “Initial Rate” value [3, 12] was 4.716. For the same compound, the “Saturation Time” value [3, 12] was 586 min, the “20% Reacted Time” value [3, 13] was 128 min and the “Initial Rate” value [3, 13] was 2.8722. For the same compound, the “Saturation Time” value [3, 13] was 640 min, the “20% Reacted Time” value [3, 14] was 180 min and the “Initial Rate” value [3, 14] was 2.3262. The “Saturation Time” value [3, 14] was 900 min and the “inhibition of ppERK activity (decreased signal in the ADP SPA)” value [3] was “concentration-dependent inhibition”.

For CN[C@@H]1C[C@H]2O[C@@](C)([C@@H]1OC)n1c3ccccc3c3c4c(c5c6ccccc6n2c5c31)C(=O)NC4 [staurosporine], the “reaction rate in the HTS ppERK assay” value [2, 4] was “significantly decreased the reaction rate”, the “reaction rate in the HTS ppERK assay” value ([2]; FIG. 37B (ADP-HH screening)) was “significantly decreased the reaction rate” and the “reaction rate in the HTS ppERK assay” value ([2]; FIG. 37C (ADP-SPA screening (2nd))) was “significantly decreased the reaction rate”. The “20% Reacted Time” value [3, 6] was 52.4 min, the “Initial Rate” value [3, 6] was 45.419 and the “Saturation Time” value [3, 6] was 262 min. For the same compound, the “20% Reacted Time” value [3, 15] was 70.4 min, the “Initial Rate” value [3, 15] was 40.907 and the “Saturation Time” value [3, 15] was 352 min. For the same compound, the “20% Reacted Time” value [3, 16] was 52.4 min, the “Initial Rate” value [3, 16] was 23.708 and the “Saturation Time” value [3, 16] was 262 min. The “20% Reacted Time” value [3, 9] was 110 min, the “Initial Rate” value [3, 9] was 10.855 and the “Saturation Time” value [3, 9] was 550 min. For the same compound, the “20% Reacted Time” value [3, 17] was 110 min, the “Initial Rate” value [3, 17] was 5.9375 and the “Saturation Time” value [3, 17] was 550 min.

Source: patent publication US20040018515A1, “Compositions selective for adenosine diphosphate and methods of using same” (priority 2002, published 2004)
